Assay [1] deals with T1, FBXL10 (Homo sapiens, UniProt Q8NHM5).
T1 construct: purchased BPS Bioscience 50120
T1 sequence (Q8NHM5 1-650): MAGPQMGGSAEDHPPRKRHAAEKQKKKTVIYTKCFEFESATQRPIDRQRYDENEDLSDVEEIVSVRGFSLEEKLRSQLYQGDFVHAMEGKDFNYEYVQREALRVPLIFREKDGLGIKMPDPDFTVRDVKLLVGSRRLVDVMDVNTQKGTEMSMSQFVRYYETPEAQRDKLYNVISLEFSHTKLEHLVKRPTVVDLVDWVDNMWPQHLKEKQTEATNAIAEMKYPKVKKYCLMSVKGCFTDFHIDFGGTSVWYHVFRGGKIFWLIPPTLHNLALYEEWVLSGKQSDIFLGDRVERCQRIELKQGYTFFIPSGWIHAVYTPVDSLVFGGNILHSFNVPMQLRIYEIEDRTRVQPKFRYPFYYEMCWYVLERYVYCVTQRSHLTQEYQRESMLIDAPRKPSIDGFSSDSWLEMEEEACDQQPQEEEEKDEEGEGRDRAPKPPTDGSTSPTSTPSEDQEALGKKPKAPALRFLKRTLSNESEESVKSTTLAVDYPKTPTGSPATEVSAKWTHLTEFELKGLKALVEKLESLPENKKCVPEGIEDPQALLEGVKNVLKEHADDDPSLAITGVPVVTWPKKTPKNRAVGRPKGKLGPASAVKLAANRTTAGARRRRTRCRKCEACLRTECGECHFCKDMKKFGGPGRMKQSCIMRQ
Nature of the assay: FBXL10 in vitro enzyme inhibition assay (AlphaScreen). Format: biochemical. Conditions: Table 3; 0.3 nM FBXL10, H3K36me2-biotin labeled peptide. From the text: (§1) This assay determines the ability of a test compound to inhibit FBXL11, FBXL10, and PHF8 demethylase activity. Baculovirus expressed FBXL11 (GenBank Accession #NM_012308, AA1-1162) was purchased from BPS Bioscience (Cat#50102). Baculovirus expressed FBXL10 (GenBank Accession #NM_032590, AA 1-650) was purchased from BPS Bioscience (Cat #50120). Baculovirus expressed PHF8 (GenBank Accession NP_055922.1) was purchased from Active Motif (Cat#31435).
The ability of test compounds to inhibit the activity of FBXL10 was determined in 384-well plate format under the following reaction conditions: 0.3 nM FBXL10, 30 nM H3K36me2-biotin labeled peptide (Anaspec cat # 64442), 0.2 µM alpha-ketoglutaric acid in assay buffer of 50 mM HEPES, pH7.3, 0.005% Brij35, 0.5 mM TCEP, 0.2 mg/ml BSA, 50 µM sodium L-ascorbate, 5 µM ammonium iron(II) sulfate. Reaction product is determined quantitatively by AlphaScreen detection after the addition of detection reagents anti-H3K36me1 antibody, AlphaScreen® Streptavidin-coated Donor beads, and AlphaScreen® Protein A Acceptor beads in 50 mM HEPES, pH7.3, 10 mM NaCl, 0.005% Brij35, 5 mM EDTA, 2 mg/ml BSA to final 10 µg/ml beads.
The assay reaction was initiated by the following: 3 µl of the mixture of 90 nM H3K36me2-biotin labeled peptide and 0.6 µM alpha-ketoglutaric acid with 3 µl of 11-point serial diluted inhibitor in 3% DMSO are added to each well of 384 well Proxiplate (Perkin Elmer), followed by the addition of 3 µl of 0.9 nM FBXL10 to initiate the reaction. The reaction mixture is incubated at room temperature for 1 hour, and terminated by the addition of 3 µl of appropriate dilution of anti H3K36me1 antibody in 50 mM HEPES, pH7.3, 10 mM NaCl, 0.005% Brij35, 5 mM EDTA, 2 mg/ml BSA. Plates will then incubated at room temperature for 40 minutes, followed by addition of 3 µl of 50 µg/ml AlphaScreen® Streptavidin-coated Donor beads and AlphaScreen® Protein A Acceptor beads in 50 mM HEPES, pH7.3, 10 mM NaCl, 0.005% Brij35, 5 mM EDTA, 2 mg/ml BSA. Plates will then be read by EnVision Multilabel Reader in AlphaScreen mode after minimum 2 hour incubation at room temperature. The AlphaScreen signal for each well is used to determine inhibition constant (IC50).
(In general: Bead proximity is the source of the signal in Alpha formats.)

In assay [2] the target is T2, PHF8 (Homo sapiens, UniProt Q9UPP1).
T2 construct: purchased Active Motif 31435
T2 sequence (Q9UPP1 37-1060): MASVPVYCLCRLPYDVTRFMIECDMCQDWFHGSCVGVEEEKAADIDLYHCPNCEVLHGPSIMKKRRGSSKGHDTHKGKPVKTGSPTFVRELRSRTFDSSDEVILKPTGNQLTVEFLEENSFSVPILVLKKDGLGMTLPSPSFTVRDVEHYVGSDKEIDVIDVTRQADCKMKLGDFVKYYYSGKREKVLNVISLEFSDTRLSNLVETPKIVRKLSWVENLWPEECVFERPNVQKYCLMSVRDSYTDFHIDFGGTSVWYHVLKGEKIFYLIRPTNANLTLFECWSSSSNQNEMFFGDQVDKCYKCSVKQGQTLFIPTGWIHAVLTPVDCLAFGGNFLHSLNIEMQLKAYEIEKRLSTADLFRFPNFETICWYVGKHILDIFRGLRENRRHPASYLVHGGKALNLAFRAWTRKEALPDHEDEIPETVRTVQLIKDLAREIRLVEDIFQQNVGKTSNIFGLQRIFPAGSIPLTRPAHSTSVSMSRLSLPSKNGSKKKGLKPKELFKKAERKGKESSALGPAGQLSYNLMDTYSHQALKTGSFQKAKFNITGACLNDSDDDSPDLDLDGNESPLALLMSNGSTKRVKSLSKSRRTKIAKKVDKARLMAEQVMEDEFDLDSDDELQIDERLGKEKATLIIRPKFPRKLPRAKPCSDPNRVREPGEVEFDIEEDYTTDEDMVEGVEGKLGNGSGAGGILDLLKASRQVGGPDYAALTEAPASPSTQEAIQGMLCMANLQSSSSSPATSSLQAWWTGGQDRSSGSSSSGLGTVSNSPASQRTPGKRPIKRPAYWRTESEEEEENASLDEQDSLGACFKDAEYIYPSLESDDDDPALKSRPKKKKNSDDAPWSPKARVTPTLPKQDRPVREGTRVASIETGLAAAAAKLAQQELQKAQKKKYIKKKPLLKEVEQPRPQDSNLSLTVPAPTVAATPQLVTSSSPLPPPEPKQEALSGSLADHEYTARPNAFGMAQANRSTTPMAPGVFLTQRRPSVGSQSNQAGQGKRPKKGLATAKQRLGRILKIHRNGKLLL
Nature of the assay: PHF8 in vitro enzyme inhibition assay (TR-FRET). Format: biochemical. Conditions: Table 3; 3 nM PHF8, H3K9me1-biotin labeled peptide.
Text: as §1
The ability of test compounds to inhibit the activity of PHF8 was determined in 384-well plate format under the following reaction conditions: 3 nM PHF8, 200 nM H3K9me1-biotin labeled peptide (Anaspec cat #64358), 0.5 µM alpha-ketoglutaric acid in assay buffer of 50 mM HEPES, pH7.3, 0.005% Brij35, 0.5 mM TCEP, 0.2 mg/ml BSA, 50 µM sodium L-ascorbate, and 5 µM ammonium iron(II) sulfate. Reaction product was determined quantitatively by TR-FRET after the addition of detection reagent Phycolink Streptavidin-allophycocyanin (Prozyme) and Europium-anti-unmodified-histone H3 lysine 9/lysine27 (H3K9/K27) antibody (PerkinElmer) in the presence of 5 mM EDTA in LANCE detection buffer (PerkinElmer) at a final concentration of 25 nM and 0.5 nM, respectively.
The assay reaction was initiated by the following: 2 µl of the mixture of 600 nM H3K9me1-biotin labeled peptide and 1.5 µM alpha-ketoglutaric acid with 2 µl of 11-point serial diluted inhibitor in 3% DMSO were added to each well of the plate, followed by the addition of 2 µl of 9 nM PHF8 to initiate the reaction. The reaction mixture was incubated at room temperature for 15 minutes, and terminated by the addition of 6 µl of 5 mM EDTA in LANCE detection buffer containing 50 nM Phycolink Streptavidin-allophycocyanin and 1 nM Europium-anti-unmodified H3K9/K27 antibody. Plates were read by EnVision Multilabel Reader in TR-FRET mode (excitation at 320 nm, emission at 615 nm and 665 nm) after 1 hour incubation at room temperature. A ratio was calculated (665/615) for each well and fitted to determine inhibition constant (IC50).
A general note: In TR-FRET formats the signal depends on donor and acceptor labels being close together.

Assay [3] concerns KDM2B-bound genes of the established Mia Paca-2 cancer cell line. The assay is described as follows: Mia Paca-2 pancreatic cell line expression assay for KDM2B-related genes (real-time PCR). Format: cell-based. Conditions: Homo sapiens; Table 4; Mia Paca-2 cells; read-out: Cellular IC50. The source says:
Gene expression assay to assess the ability of KDM2B small molecule inhibitors to activate the expression of KDM2B-bound genes of the established Mia Paca-2 cancer cell line.
This gene expression assay is a real-time PCR assay which quantifies the amount of messenger RNA from genes that are normally repressed by KDM2B interacting with EZH2 compared with a control GAPDH gene whose expression is not regulated by KDM2B. The amount of gene expression is correlated to the amount of small molecule inhibition of KDM2B's enzymatic activity.
The established cancer cell line Mia Paca-2 was purchased from American Type Culture Collection (ATCC) and routinely passaged according to ATCC published protocols. Cells were seeded at a density of 40,000 per 96-well. 24 hours after plating, cells received final concentrations of 20nM, 40nM, 80nM and 320nM of test compound. […] At the end of each of the compound incubation period, media was removed and cells were trypsinized according to the ATCC published protocol. mRNA was then harvested from the cell samples using a RNeasy kit (Qiagen). mRNA was quantified and qualified using a Nanodrop machine (Thermo Scientific). mRNA was converted to cDNA using the High-Capacity cDNA Reverse Transcription Kit (Applied Biosystems). […] Data was analyzed using the delta-delta Ct method to calculate fold enrichment over DMSO sample gene expression.
(In qPCR the cycle at which signal appears reflects the starting amount.)

Drawing on patent EP3436445B1, “HISTONE DEMETHYLASE INHIBITORS” (Celgene Quanticel Research, Inc., priority 2016, dated 2017), this text covers IC50 for ten molecules.

For orientation: IC50 means the concentration that gives 50% inhibition. `Fc1c(Cn2cnc(-c3cc(-c4c[nH]nn4)ccn3)c2)cccc1OC(F)(F)F` [Example 26, 2-[1-[[2-fluoro-3-(trifluoromethoxy)phenyl]methyl]imidazol-4-yl]-4-(1H-triazol-4-yl)pyridine] returned an IC50 in assay [1] of 100 to 1000 nM.

In assay [1], `c1ccc(-c2ccccc2CCn2cnc(-c3cc(-c4c[nH]nn4)ccn3)c2)cc1` [Example 27, 2-[1-[2-(2-phenylphenyl)ethyl]imidazol-4-yl]-4-(1H-triazol-4-yl)pyridine] came in with a concentration for half-maximal inhibition (IC50) of 100 to 1000 nM.

As for `CC(Cc1ccccc1)n1cnc(-c2cc(-c3c[nH]nn3)ccn2)c1` (stereo not drawn) [Example 33, 2-[1-(1-phenylpropan-2-yl)imidazol-4-yl]-4-(1H-triazol-4-yl)pyridine], the IC50 in assay [1] fell in the range of 100 to 1000 nM.

Regarding `FC(F)(F)Oc1ccccc1CCn1cnc(-c2cc(-c3c[nH]nn3)ccn2)c1` [Example 34], the half-inhibitory concentration (IC50) is 100 to 1000 nM in assay [2] and no more than 100 nM in assay [1].

As to `FC(F)(F)c1[nH]nnc1-c1ccnc(-c2cn(CCc3cccc4ccccc34)cn2)c1` [Example 37, 2-[1-(2-naphthalen-1-ylethyl)imidazol-4-yl]-4-[5-(trifluoromethyl)-1H-triazol-4-yl]pyridine], the IC50 in assay [3] lay within 100 to 1000 nM.

As to `Cn1cnc(-c2cc(-c3nn[nH]c3F)ccn2)c1-c1ccc(F)cc1OCC1CC1` [Example 41, 2-[5-[2-(cyclopropylmethoxy)-4-fluorophenyl]-1-methylimidazol-4-yl]-4-(5-fluoro-1H-triazol-4-yl)pyridine], the IC50 in assay [3] was in the range of 1000 to 10000 nM.

With `c1nc(-c2cn(CC3CC3)cn2)cc2[nH]nnc12` [Example 42, 1-(cyclopropylmethyl)-4-{1H-[1,2,3]triazolo[4,5-c]pyridin-6-yl}-1H-imidazole], the IC50 was 1000 to 10000 nM in assay [2] and no more than 100 nM in assay [1].

Take `Clc1cc(Cl)cc(-n2cnc(-c3cc4[nH]nnc4cn3)c2)c1` [Example 52, 1-(3,5-dichlorophenyl)-4-{1H-[1,2,3]triazolo[4,5-c]pyridin-6-yl}-1H-imidazole]: the IC50 in assay [2] was 1000 to 10000 nM; in assay [1], 100 to 1000 nM.

For the molecule `Cn1cnc(-c2cc3[nH]nnc3cn2)c1-c1ccc(F)cc1` [Example 53, 5-(4-fluorophenyl)-1-methyl-4-{1H-[1,2,3]triazolo[4,5-c]pyridin-6-yl}-1H-imidazole], the IC50 in assay [2] was 1000 to 10000 nM; in assay [1], 100 to 1000 nM.

On to `Clc1ccccc1Cn1cnc(-c2cc(-c3cn[nH]n3)ccn2)c1Br` [Example 55, 2-(5-bromo-1-(2-chlorobenzyl)-1H-imidazol-4-yl)-4-(2H-1,2,3-triazol-4-yl)pyridine], for which the IC50 in assay [2] is 100 to 1000 nM; in assay [1], no more than 100 nM.
